Columns and labels:
[1] = molecular target: Ribosomal protein S6 kinase alpha-1 (Homo sapiens, UniProt Q15418); assay: Inhibition of RSK1
[2] = molecular target: Rho-associated protein kinase 1 (Homo sapiens, UniProt Q13464); assay: Inhibition of human recombinant ROCK1 expressed in Sf9 cells […]
[3] = molecular target: Ribosomal protein S6 kinase beta-1 (Homo sapiens, UniProt P23443); assay: Inhibition of p70S6K
Thoracic aorta = assay: Dilatory activity against phenylephrine-induced contraction of Sprague-Dawley rat thoracic aorta; type: functional, tissue-based
[4] = Cmax in Sprague-Dawley rat at 1.6 mg/kg, iv; type: ADME, organism-based; parameters: dose 1.6 mg/kg, route intravenous; settings: in vivo
[5] = Half life in Sprague-Dawley rat at 1.6 mg/kg; type: ADME, organism-based; parameters: dose 1.6 mg/kg; settings: in vivo
[6] = Clearance in Sprague-Dawley rat at 1.6 mg/kg; type: ADME, organism-based; parameters: dose 1.6 mg/kg; settings: in vivo
[7] = Volume of distribution in Sprague-Dawley rat at 1.6 mg/kg; type: ADME, organism-based; parameters: dose 1.6 mg/kg; settings: in vivo, read-out: Vdss
[8] = Oral bioavailability in Sprague-Dawley rat at 1.6 mg/kg, po; type: ADME, organism-based; settings: in vivo
[9] = Cmax in Sprague-Dawley rat at 0.9 mg/kg, iv; type: ADME, organism-based; parameters: dose 0.9 mg/kg, route intravenous; settings: in vivo
[10] = Half life in Sprague-Dawley rat at 0.9 mg/kg; type: ADME, organism-based; parameters: dose 0.9 mg/kg; settings: in vivo
[11] = Clearance in Sprague-Dawley rat at 0.9 mg/kg; type: ADME, organism-based; parameters: dose 0.9 mg/kg; settings: in vivo
[12] = Volume of distribution in Sprague-Dawley rat at 0.9 mg/kg; type: ADME, organism-based; parameters: dose 0.9 mg/kg; settings: in vivo, read-out: Vdss
[13] = Oral bioavailability in Sprague-Dawley rat at 0.9 mg/kg, po; type: ADME, organism-based; settings: in vivo
[14] = Cmax in Sprague-Dawley rat at 1.8 mg/kg, iv; type: ADME, organism-based; parameters: dose 1.8 mg/kg, route intravenous; settings: in vivo
[15] = Half life in Sprague-Dawley rat at 1.8 mg/kg; type: ADME, organism-based; parameters: dose 1.8 mg/kg; settings: in vivo
[16] = Clearance in Sprague-Dawley rat at 1.8 mg/kg; type: ADME, organism-based; parameters: dose 1.8 mg/kg; settings: in vivo
[17] = Volume of distribution in Sprague-Dawley rat at 1.8 mg/kg; type: ADME, organism-based; parameters: dose 1.8 mg/kg; settings: in vivo, read-out: Vdss
[18] = Oral bioavailability in Sprague-Dawley rat at 1.8 mg/kg, po; type: ADME, organism-based; settings: in vivo
Rattus norvegicus = assay: Decrease in mean arterial pressure in spontaneously hypertensive rat at 3 mg/kg, po; type: functional, organism-based; parameters: dose 3 mg/kg; settings: Artery
[19] = Plasma concentration in spontaneously hypertensive rat at 3 mg/kg after 0.5 hrs; type: ADME, organism-based; parameters: dose 3 mg/kg
[20] = Plasma concentration in spontaneously hypertensive rat at 3 mg/kg after 1 hr; type: ADME, organism-based; parameters: dose 3 mg/kg
[21] = Plasma concentration in spontaneously hypertensive rat at 3 mg/kg after 2 hrs; type: ADME, organism-based; parameters: dose 3 mg/kg
[22] = Plasma concentration in spontaneously hypertensive rat at 3 mg/kg after 4 hrs; type: ADME, organism-based; parameters: dose 3 mg/kg
[23] = Plasma concentration in spontaneously hypertensive rat at 3 mg/kg after 8 hrs; type: ADME, organism-based; parameters: dose 3 mg/kg
[24] = Plasma concentration in spontaneously hypertensive rat at 3 mg/kg after 24 hrs; type: ADME, organism-based; parameters: dose 3 mg/kg
[25] = Clearance in Sprague-Dawley rat; type: ADME, organism-based; settings: in vivo
[26] = Cmax in Sprague-Dawley rat at 1.3 mg/kg, iv; type: ADME, organism-based; parameters: dose 1.3 mg/kg, route intravenous; settings: in vivo
[27] = Cmax in Sprague-Dawley rat at 1.7 mg/kg, iv; type: ADME, organism-based; parameters: dose 1.7 mg/kg, route intravenous; settings: in vivo
[28] = Half life in Sprague-Dawley rat at 1.7 mg/kg; type: ADME, organism-based; parameters: dose 1.7 mg/kg; settings: in vivo
[29] = Clearance in Sprague-Dawley rat at 1.7 mg/kg; type: ADME, organism-based; parameters: dose 1.7 mg/kg; settings: in vivo
[30] = Volume of distribution in Sprague-Dawley rat at 1.7 mg/kg; type: ADME, organism-based; parameters: dose 1.7 mg/kg; settings: in vivo, read-out: Vdss
[31] = Oral bioavailability in Sprague-Dawley rat at 1.7 mg/kg, po; type: ADME, organism-based; settings: in vivo
[32] = Oral bioavailability in Sprague-Dawley rat at 1.3 mg/kg, po; type: ADME, organism-based; settings: in vivo
[33] = Half life in Sprague-Dawley rat at 1.3 mg/kg; type: ADME, organism-based; parameters: dose 1.3 mg/kg; settings: in vivo
[34] = Clearance in Sprague-Dawley rat at 1.3 mg/kg; type: ADME, organism-based; parameters: dose 1.3 mg/kg; settings: in vivo
[35] = Volume of distribution in Sprague-Dawley rat at 1.3 mg/kg; type: ADME, organism-based; parameters: dose 1.3 mg/kg; settings: in vivo, read-out: Vdss

Chain of Rho-associated protein kinase 1 (Q13464 whole entry): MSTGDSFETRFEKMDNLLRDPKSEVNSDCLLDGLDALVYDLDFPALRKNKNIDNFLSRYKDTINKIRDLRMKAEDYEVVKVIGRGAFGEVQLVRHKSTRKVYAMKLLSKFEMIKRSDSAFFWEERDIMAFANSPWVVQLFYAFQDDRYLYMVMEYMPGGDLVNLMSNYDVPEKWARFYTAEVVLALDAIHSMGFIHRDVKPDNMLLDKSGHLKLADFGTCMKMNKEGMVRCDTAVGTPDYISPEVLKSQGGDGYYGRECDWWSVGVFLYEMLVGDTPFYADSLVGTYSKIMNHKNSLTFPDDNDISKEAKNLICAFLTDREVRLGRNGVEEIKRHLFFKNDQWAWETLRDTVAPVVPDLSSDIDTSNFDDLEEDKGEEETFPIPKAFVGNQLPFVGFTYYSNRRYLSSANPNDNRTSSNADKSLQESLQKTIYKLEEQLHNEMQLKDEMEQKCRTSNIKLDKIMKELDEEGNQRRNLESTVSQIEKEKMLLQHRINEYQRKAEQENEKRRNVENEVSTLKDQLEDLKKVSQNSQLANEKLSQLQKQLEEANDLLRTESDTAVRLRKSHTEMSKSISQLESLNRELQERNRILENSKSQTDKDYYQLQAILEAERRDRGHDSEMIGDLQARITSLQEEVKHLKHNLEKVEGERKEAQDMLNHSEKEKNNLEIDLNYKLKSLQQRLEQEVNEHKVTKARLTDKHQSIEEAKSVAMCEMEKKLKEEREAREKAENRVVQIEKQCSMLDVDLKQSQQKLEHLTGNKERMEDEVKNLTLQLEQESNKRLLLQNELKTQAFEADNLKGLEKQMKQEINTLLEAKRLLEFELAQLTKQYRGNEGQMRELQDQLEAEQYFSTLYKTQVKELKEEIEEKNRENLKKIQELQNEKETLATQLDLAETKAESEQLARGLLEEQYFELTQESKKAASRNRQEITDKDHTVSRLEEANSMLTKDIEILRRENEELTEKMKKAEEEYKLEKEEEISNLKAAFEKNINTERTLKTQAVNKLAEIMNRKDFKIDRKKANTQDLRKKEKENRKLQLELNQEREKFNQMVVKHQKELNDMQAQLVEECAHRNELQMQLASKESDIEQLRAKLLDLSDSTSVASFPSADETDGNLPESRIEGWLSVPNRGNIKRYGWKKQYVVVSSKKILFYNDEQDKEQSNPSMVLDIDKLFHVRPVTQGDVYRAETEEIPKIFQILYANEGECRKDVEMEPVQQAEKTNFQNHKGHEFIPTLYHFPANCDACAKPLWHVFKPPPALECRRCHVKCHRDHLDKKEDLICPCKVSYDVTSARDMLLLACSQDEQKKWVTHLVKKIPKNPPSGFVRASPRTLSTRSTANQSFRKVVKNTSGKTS
Chain of Ribosomal protein S6 kinase beta-1 (P23443 whole entry): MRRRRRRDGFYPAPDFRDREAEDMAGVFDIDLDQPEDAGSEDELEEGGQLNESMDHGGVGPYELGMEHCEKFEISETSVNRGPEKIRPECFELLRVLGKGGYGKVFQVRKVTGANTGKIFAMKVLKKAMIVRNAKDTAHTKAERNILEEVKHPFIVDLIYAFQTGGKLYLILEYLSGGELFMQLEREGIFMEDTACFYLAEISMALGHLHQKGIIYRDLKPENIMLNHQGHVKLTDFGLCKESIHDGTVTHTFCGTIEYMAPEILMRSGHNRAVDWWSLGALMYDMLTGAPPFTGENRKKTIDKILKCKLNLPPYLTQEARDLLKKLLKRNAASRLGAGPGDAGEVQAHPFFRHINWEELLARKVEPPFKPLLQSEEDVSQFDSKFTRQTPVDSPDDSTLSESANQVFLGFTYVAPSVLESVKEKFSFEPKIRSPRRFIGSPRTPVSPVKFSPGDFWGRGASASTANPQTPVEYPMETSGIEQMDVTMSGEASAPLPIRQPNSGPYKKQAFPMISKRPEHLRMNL
Chain of Ribosomal protein S6 kinase alpha-1 (Q15418 whole entry): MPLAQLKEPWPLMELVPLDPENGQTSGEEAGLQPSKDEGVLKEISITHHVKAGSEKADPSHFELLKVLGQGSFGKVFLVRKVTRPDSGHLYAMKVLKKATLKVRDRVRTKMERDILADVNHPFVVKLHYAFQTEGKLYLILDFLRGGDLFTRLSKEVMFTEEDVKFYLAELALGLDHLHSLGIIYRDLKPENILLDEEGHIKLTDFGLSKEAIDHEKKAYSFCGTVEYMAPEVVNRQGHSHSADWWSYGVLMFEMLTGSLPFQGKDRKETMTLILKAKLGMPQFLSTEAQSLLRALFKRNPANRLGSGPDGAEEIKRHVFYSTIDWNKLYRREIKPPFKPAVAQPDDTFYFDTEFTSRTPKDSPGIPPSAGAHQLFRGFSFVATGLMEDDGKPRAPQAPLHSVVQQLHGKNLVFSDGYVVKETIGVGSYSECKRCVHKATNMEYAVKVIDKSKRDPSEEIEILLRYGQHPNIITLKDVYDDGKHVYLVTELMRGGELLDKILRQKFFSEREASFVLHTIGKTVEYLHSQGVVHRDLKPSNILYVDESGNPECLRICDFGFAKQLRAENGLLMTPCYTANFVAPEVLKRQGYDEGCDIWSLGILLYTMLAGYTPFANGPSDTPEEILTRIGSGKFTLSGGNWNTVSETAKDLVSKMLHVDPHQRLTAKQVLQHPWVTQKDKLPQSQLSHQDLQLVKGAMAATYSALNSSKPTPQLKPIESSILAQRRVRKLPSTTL

Structure (SMILES)	IC50 [1] [nM]	IC50 [2] [nM]	IC50 [3] [nM]	IC50 (Thoracic aorta) [nM]	Cmax [9] [ng/mL]	half-life [10] [h]	clearance [11] [mL/min/kg]	Vd [12] [L/kg]	bioavailability [13] [%]	other results
CC1=C(C(=O)Nc2ccc3[nH]ncc3c2F)C(c2ccc(C(F)(F)F)cc2)CC(=O)N1 (stereo unspecified)	> 10000	2500	> 10000	–	–	–	–	–	–	–
CC1=C(C(=O)Nc2ccc3[nH]ncc3c2)C(c2ccc(F)cc2)CC(=O)N1 (stereo unspecified)	1410	51	1100	200	–	–	–	–	–	Cmax [4]: 668 ng/mL; half-life [5]: 1 h; clearance [6]: 47 mL/min/kg; Vd [7]: 2.1 L/kg; bioavailability [8]: 14%
CC1=C(C(=O)Nc2ccc3[nH]ncc3c2)C(c2ccc(C(F)(F)F)cc2)CC(=O)N1 (stereo unspecified)	740	5	–	39	315	0.7	51	2.3	22	–
CC1=C(C(=O)Nc2cc3cn[nH]c3cc2F)C(c2ccc(C(F)(F)F)cc2)CC(=O)N1 (stereo unspecified)	780	14	1940	190	–	–	–	–	–	Cmax [14]: 1560 ng/mL; half-life [15]: 1 h; clearance [16]: 25 mL/min/kg; Vd [17]: 1.4 L/kg; bioavailability [18]: 61%; Activity (Rattus norvegicus): Dose-dependent effect; concentration at 0.5 h [19]: 193 ng/mL; concentration at 1 h [20]: 192 ng/mL; concentration at 2 h [21]: 190 ng/mL; concentration at 4 h [22]: 110 ng/mL; concentration at 8 h [23]: 74 ng/mL; concentration at 24 h [24]: 2 ng/mL
CC1=C(C(=O)Nc2ccc3[nH]ncc3c2)C(c2ccc(F)cc2)NC(=O)N1 (stereo unspecified) [GSK-180736A]	3100	14	2850	760	–	–	–	–	–	clearance [25]: 50 mL/min/kg; Cmax [26]: 567 ng/mL
CC1=C(C(=O)Nc2ccc3[nH]ncc3c2)C(c2ccc3ccccc3c2)CC(=O)N1 (stereo unspecified) [GSK-270822A]	1100	9	1550	76	–	–	–	–	–	Cmax [27]: 700 ng/mL; half-life [28]: 0.9 h; clearance [29]: 45 mL/min/kg; Vd [30]: 1.8 L/kg; bioavailability [31]: 13%
CC1=C(C(=O)Nc2ccc3[nH]ncc3c2)C(c2ccc(Cl)c(Cl)c2)CC(=O)N1 (stereo unspecified) [GSK-299115A]	620	8	560	–	334	0.8	57	2.4	1	–
CC1=C(C(=O)Nc2ccc3[nH]nc(C)c3c2)C(c2ccc(C(F)(F)F)cc2)CC(=O)N1 (stereo unspecified) [GSK-466314A]	1950	9	4790	130	–	–	–	–	–	bioavailability [32]: 18%; Cmax [26]: 672 ng/mL; half-life [33]: 2 h; clearance [34]: 24 mL/min/kg; Vd [35]: 2.8 L/kg
CC1=C(C(=O)Nc2cc(Cl)c3[nH]ncc3c2)C(c2ccc(C(F)(F)F)cc2)CC(=O)N1 (stereo unspecified) [GSK-466317A]	90	8	590	–	424	1.2	81	3.9	29	–
